Test results published in patent US20070173461A1, “Glycoside prodrug of 5-aminosalicylic acid” (Nippon Shinyaku Co., Ltd., priority 2004, published 2007).

What was measured:
[1] = Measurement of plasma concentration of 5-ASA (HPLC) after administration to rats; assay type: in vivo, rat; conditions: for Plasma concentration of 5-ASA after oral administration (in words, FIG. 1): rats, p.o., 50 mg/kg as 5-ASA
Protocol: To SD male rats at 7 weeks of age, 5-ASA was intravenously administered as a test drug, and the compound [1], the compound [2], the compound [3] or Pentasa ™ was orally administered at a dose of 50 mg/kg as5-ASA. The plasma concentration of 5-ASA was measured by high performance liquid chromatography (HPLC). As for Pentasa (registered trademark), granules obtained by pulverizing Pentasa (registered trademark) tablet were used.

[2] = Concentration of 5-ASA in colonic tissue and rectal tissue after oral administration; assay type: in vivo, rat; conditions: rats, p.o., 50 mg/kg as 5-ASA; FIGS. 6 and 7
Protocol: Further, the compound [2] and Pentasa ™ were orally administered at a dose of 50 mg/kg as 5-ASA, and the colon and the rectum were homogenated and centrifuged. Then, the concentrations of 5-ASA in the colonic tissue and the rectal tissue were measured by high performance liquid chromatography (HPLC). As for Pentasa ™, granules obtained by pulverizing Pentasa ™ tablet were used.

[3] = Amount of 5-ASA in cecal, proximal colonic, distal colonic and rectal contents after oral administration; assay type: in vivo, rat; conditions: rats, p.o., 50 mg/kg as 5-ASA; compared with Pentasa and 5-ASA; FIGS. 2-5
Protocol: To SD male rats at 7 weeks of age, the compound [1], Pentasa ™ and 5-ASA were orally administered at a dose of 50 mg/kg as 5-ASA, and the contents in the cecum, the proximal colon, the distal colon and the rectum were homogenated and centrifuged. Then, the amount of 5-ASA in the respective sites of the large intestine was measured by high performance liquid chromatography (HPLC). As for Pentasa ™, granules obtained by pulverizing Pentasa ™ tablet were used.

TNBS-induced colitis = assay: Trinitrobenzenesulfonic acid (TNBS)-induced colitis in rats; assay type: in vivo, rat; conditions: 3 days after TNBS, female SD rats
Protocol: To a female SD rat fasted for 24 hours, an aqueous solution of TNBS/50% ethanol (30 mg/0.25 ml/rat) was administered in the colon at 8 cm from the anus using a probe for oral administration under pentobarbital anesthesia to induce colitis. At 3 days after the administration of TNBS, the colon was excised, and the wet weight of the colon of 8 cm long from the anus was weighed. The degree of colitis onset was scored in accordance with the method of Wallace et al. (Gastroenterology 96, 29-36 (1989)). As the test compounds, Pentasa ™ at doses of 30 mg/kg and 100 mg/kg and compound [1] at doses of 61.8 mg/kg and 205.9 mg/kg (corresponding to 30 mg/kg and 100 mg/kg in terms of 5-ASA) were orally administered twice a day (on the day of TNBS administration, once at 4 hours before TNBS administration). Pentasa ™ was administered as granules obtained by pulversing Pentasa ™ tablet.

[4] = rat, in vivo; cited from earlier work

SMILES: Nc1ccc(O[C@H]2O[C@H](CO)[C@H](O)[C@H](O)[C@H]2O)c(C(=O)O)c1 [[2], 5-amino-2-(α-D-galactopyranosyloxy)benzoic acid]
- Plasma concentration of 5-ASA after oral administration (in words, FIG. 1) [1]: remained low as compared with those of Pentasa
- Concentrations of 5-ASA in the colonic tissue and the rectal tissue [2]: higher as compared with Pentasa

SMILES: Nc1ccc(O[C@@H]2O[C@H](CO)[C@H](O)[C@H](O)[C@H]2O)c(C(=O)O)c1 [Compound [1], 5-amino-2-(β-D-galactopyranosyloxy)benzoic acid]
- Plasma concentration of 5-ASA after oral administration (in words, FIG. 1) [1]: remained low as compared with those of Pentasa
- Amount of 5-ASA in the respective sites of the large intestine (cecum, proximal colon, distal colon, rectum contents) [3]: highest value
- Damage score (TNBS-induced colitis; 61.8 mg/kg (corresponding to 30 mg/kg as 5-ASA) p.o. twice a day): significantly reduced
- Increase of the wet weight of the colon (TNBS-induced colitis; 205.9 mg/kg (corresponding to 100 mg/kg as 5-ASA) p.o. twice a day): inhibited the increase of the wet weight of the colon significantly

SMILES: Nc1ccc(O)c(C(=O)O)c1 [Compound 5-ASA, 5-Aminosalicylic acid]
- AUC ([1]; rat, iv, plasma 5-ASA, SD male rats, i.v., 1 mg/kg, read-out: Area under the curve of concentration (AUC)): 1420 ng·h/mL

SMILES: Nc1ccc(O[C@@H]2O[C@H](CO)[C@@H](O)[C@H](O)[C@H]2O)c(C(=O)O)c1 [[3], 5-amino-2-(β-D-glucopyranosyloxy)benzoic acid]
- Plasma concentration of 5-ASA after oral administration (in words, FIG. 1) [1]: remained low as compared with those of Pentasa

SMILES: C[C@@H]1C[C@H]2[C@@H]3CCC4=CC(=O)C=C[C@]4(C)[C@@]3(F)[C@@H](O)C[C@]2(C)[C@@]1(O)C(=O)COC1O[C@H](CO)[C@@H](O)[C@H](O)[C@H]1O (stereo partly drawn) [glucose derivative of dexamethasone]
- Fraction delivered to the cecum [4]: 60%
